From patent US20160159774A1 (Celgene Avilomics Research, Inc., priority 2014, published 2016)

Tests used:
activated BTK enzyme = target: T1, activated BTK enzyme (Homo sapiens, UniProt Q06187); experiment: Omnia assay for potency assessment against BTK; format: biochemical; conditions: BTK inhibition assay; [BTK]=5 nM, [ATP]=40 μM, [Y5-Sox]=10 μM
T1 construct: purchased Life Technologies PV3363
Text: Omnia Assay Protocol for Potency Assessment Against BTK
The protocol below describes an assay to measure potency of compounds against the activated BTK enzyme. The mechanics of the assay platform are best described by the vendor (Life Technologies, Carlsbad, Calif.) on their website at the following URLs: www.lifetechnologies.com/us/en/home/life-science/drug-discovery/target-and-lead-identification-and-validation/kinasebiology/kinase-activity-assays/omnia-kinase-assays/omnia-kinase-principle.html and tools.lifetechnologies.com/content/sfs/manuals/omnia_kinase_assay_man.pdf
Briefly, 10× stocks of BTK (PV3363) from Life Technologies, 1.13×ATP (AS00lA) and Sox conjugated peptide substrates, Y5-Sox, (KZN305l) were prepared in 1× kinase reaction buffer consisting of 20 mM Tris, pH 7.5, 5 mM MgCl2, 1 mM EGTA, 5 mM (3-glycerophosphate, 5% glycerol (10× stock, KB002A) and 0.2 mM DTT (DS00lA). 5 μL of each enzyme were pre-incubated in a Corning (#3574) 384-well, white, non-binding surface microtiter plate (Corning, N.Y.) for 30 min. at room temperature with a 0.5 μL volume of 50% DMSO or serially diluted compounds prepared in 50% DMSO. Kinase reactions were started with the addition of […] of the ATP/Tyr-Sox peptide substrate Y5 mix and monitored every 71 seconds for 60 minutes at λex360/λem485 in a Synergy4 plate reader from BioTek (Winooski, Vt.). At the conclusion of each assay, progress curves from each well were examined for linear reaction kinetics and fit statistics (R2, 95% confidence interval, absolute sum of squares). Initial velocity (0 minutes to ˜30 minutes) from each reaction was determined from the slope of a plot of relative fluorescence units vs time (minutes) and then plotted against inhibitor concentration to estimate IC50 from log [Inhibitor] vs Response, Variable Slope model in GraphPad Prism from GraphPad Software (San Diego, Calif.).
Reagent conditions for the assay are:
[BTK]=5 nM, [ATP]=40 μM, [Y5-Sox]=10 μM (ATP KMapp˜36 μM).
The compound numbers correspond to the compound numbers in the examples.

[1] = target: T2, BTK in Ramos human Burkitt lymphoma cells (Homo sapiens, UniProt Q06187); experiment: BTK Ramos cellular assay (BTK occupancy); format: cell-based; conditions: concentration producing 50% occupancy of BTK, 1 hour incubation with compound
T2 construct: Compounds of this invention were assayed in Ramos human Burkitt lymphoma cells; endogenous in cells; host or cells: Ramos human Burkitt lymphoma cells
Protocol: BTK activity in Ramos cells, in the presence of a compound of the invention, can be measured by 3 different methods: 1) inhibition of autophosphorylation of BTK; 2) inhibition of phosphorylation of the immediate BTK surrogate PLCγ2; and 3) BTK occupancy. […] In this instance, BTK occupancy was chosen and is described below.
Compounds of this invention were assayed in Ramos human Burkitt lymphoma cells. Ramos cells were grown in suspension in T175 flasks, spun down, resuspended to a concentration of 2×10^6 cells per mL in serum-free media and incubated for 1 hour. Compound was added to Ramos cells to a final concentration of 500, 166.7, 55.6, 18.5, 6.2, 2.1, and 0.7 nM. Ramos cells were incubated with compound for 1 hour, washed with PBS and lysed in 1004 of BioRad lysis Buffer. Cell lysates were incubated with a biotinylated covalent probe (compound 1-215 disclosed in U.S. published application number 2010/0029610, incorporated by reference in its entirety) at a final concentration of 1 μM in a PBS, 0.05% Tween-20, 1% BSA solution for 1 h at room temperature. Standards and samples were transferred to a streptavidin-coated 96-well ELISA plate and mixed while shaking for 1 h at room temperature. The α-Btk antibody (BD 611116, 1:1000 dilution in PBS+0.05% Tween-20+0.5% BSA) was then added and incubated for 1 h at room temperature. After wash, goat α-mouse-HRP (1:5000 dilution in PBS+0.05% Tween-20+0.5% BSA) was added and incubated for 1 h at room temperature. The ELISA was developed with addition of tetramethyl benzidine (TMB) followed by Stop Solution and read at OD 450 nm. The standard curve (11.7-3000 pg/μL) was generated with human full-length recombinant Btk protein and plotted using a 4 parameter curve fit in Gen5 software. Uninhibited Btk detected from samples was normalized to μg total protein as determined by BCA protein analysis (Pierce Cat. 23225).
The results of this assay show the concentration of compound producing 50% occupancy of BTK. This level of occupancy empirically translates to a level of 50% inhibition of BTK activity (both as measured by autophosphorylation and by phosphorylation of PLCγ2). […] The compound numbers correspond to the compound numbers in the examples.

T2 sequence (Q06187 whole entry): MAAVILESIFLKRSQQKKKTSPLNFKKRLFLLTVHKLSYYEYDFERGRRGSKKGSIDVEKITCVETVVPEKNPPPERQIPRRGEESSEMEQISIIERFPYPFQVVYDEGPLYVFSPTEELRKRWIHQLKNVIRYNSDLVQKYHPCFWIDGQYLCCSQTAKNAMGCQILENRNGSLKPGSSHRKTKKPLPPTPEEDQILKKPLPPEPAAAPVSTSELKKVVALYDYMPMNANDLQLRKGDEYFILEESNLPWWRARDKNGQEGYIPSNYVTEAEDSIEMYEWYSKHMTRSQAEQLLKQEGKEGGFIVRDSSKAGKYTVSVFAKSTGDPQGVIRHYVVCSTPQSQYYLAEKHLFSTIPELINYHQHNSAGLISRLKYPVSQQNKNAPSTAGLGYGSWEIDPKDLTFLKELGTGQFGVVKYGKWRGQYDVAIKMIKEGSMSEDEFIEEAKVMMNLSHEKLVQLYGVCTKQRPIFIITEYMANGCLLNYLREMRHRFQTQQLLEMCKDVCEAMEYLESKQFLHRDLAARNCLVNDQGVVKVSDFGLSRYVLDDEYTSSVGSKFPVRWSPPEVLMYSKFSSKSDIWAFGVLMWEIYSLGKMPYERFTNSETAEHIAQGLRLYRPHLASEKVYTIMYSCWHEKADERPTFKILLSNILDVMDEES
T1 sequence (Q06187 whole entry): as above

IC50 (activated BTK enzyme) [nM] | EC50 [1] [nM] | Structure (SMILES)
101 to 1000 |  | C=CC(=O)N1CC2CC(Nc3nc(Nc4ccc5c(c4)CN(C)C5)ncc3F)C1C2 (centres unmarked) [Compound I-66, 1-(6-((5-fluoro-2-((2-methylisoindolin-5-yl)amino)pyrimidin-4-yl)amino)-2-azabicyclo[2.2.1]heptan-2-yl)prop-2-en-1-one]
< 10 | 10 to 100 | C=CC(=O)N1CCC[C@@H](Nc2nc(Nc3ccc4c(c3)CN(C3CCN(C(C)=O)CC3)C4)ncc2F)C1 [Compound I-9, (R)-1-(3-(2-(2-(1-Acetylpiperidin-4-yl)isoindolin-5-ylamino)-5-fluoropyrimidin-4-ylamino)piperidin-1-yl)prop-2-en-1-one]
< 10 | 10 to 100 | C=CC(=O)N1CCC[C@@H](Nc2nc(Nc3ccc4c(c3)CCN(C3CC3)CC4)ncc2F)C1 [Compound I-60, (R)-1-(3-(2-(3-Cyclopropyl-2,3,4,5-tetrahydro-1H-benzo[d]azepin-7-ylamino)-5-fluoropyrimidin-4-ylamino)piperidin-1-yl)prop-2-en-1-one]
< 10 | 10 to 100 | C=CC(=O)N1CCC[C@@H](Nc2nc(Nc3ccc4c(c3)CN(C)CCC4)ncc2F)C1 [Compound I-55, (R)-1-(3-(5-Fluoro-2-(2-methyl-2,3,4,5-tetrahydro-1H-benzo[c]azepin-8-ylamino)pyrimidin-4-ylamino)piperidin-1-yl)prop-2-en-1-one]
< 10 | < 10 | C=CC(=O)N1CCC[C@@H](Nc2nc(Nc3ccc4c(c3)CNCC4)ncc2F)C1 [Compound I-33, (R)-1-(3-(5-fluoro-2-(1,2,3,4-tetrahydroisoquinolin-7-ylamino)pyrimidin-4-ylamino)-piperidin-1-yl)prop-2-en-1-one]
< 10 | 10 to 100 | C=CC(=O)N1CCC[C@@H](Nc2nc(Nc3ccc4c(c3)CN(CC3COC3)C4)ncc2F)C1 [Compound I-15, (R)-1-(3-((5-Fluoro-2-((2-(oxetan-3-ylmethyl)isoindolin-5-yl)amino)pyrimidin-4-yl)amino)piperidin-1-yl)prop-2-en-1-one]
< 10 | < 10 | [2H]C([2H])([2H])N1Cc2ccc(Nc3ncc(F)c(N[C@@H]4CCCN(C(=O)C=C)C4)n3)cc2C1 [Compound I-20, (R)-1-(3-((5-Fluoro-2-((2-deuteromethylisoindolin-5-yl)amino)pyrimidin-4-yl)amino)piperidin-1-yl)prop-2-en-1-one]
< 10 | 10 to 100 | C=CC(=O)N1CCC[C@@H](Nc2nc(Nc3ccc4c(c3)C(C)(C)N(C)C4(C)C)ncc2F)C1 [Compound I-41, (R)-1-(3-(5-Fluoro-2-(1,1,2,3,3-pentamethylisoindolin-5-ylamino)pyrimidin-4-ylamino)piperidin-1-yl)prop-2-en-1-one]
< 10 | 10 to 100 | C=CC(=O)N1CCC[C@@H](Nc2nc(Nc3ccc4c(c3)C(=O)N(C)C4=O)ncc2F)C1 [Compound I-63, (R)-5-((4-((1-Acryloylpiperidin-3-yl)amino)-5-fluoropyrimidin-2-yl)amino)-2-methylisoindoline-1,3-dione]
< 10 | < 10 | C=CC(=O)N1CCC[C@@H](Nc2nc(Nc3ccc4c(c3)CCN(C3CCC3)C4)ncc2F)C1 [Compound I-42, (R)-1-(3-((2-((2-cyclobutyl-1,2,3,4-tetrahydroisoquinolin-6-yl)amino)-5-fluoropyrimidin-4-yl)amino)piperidin-1-yl)prop-2-en-1-one]
< 10 | < 10 | C=CC(=O)N1CCC[C@@H](Nc2nc(Nc3ccc4c(c3)CN(CC(N)=O)C4)ncc2F)C1 [Compound I-16]
< 10 | 10 to 100 | C=CC(=O)N1CCC[C@@H](Nc2nc(Nc3ccc4c(c3)CCN(C3CC3)C4)ncc2F)C1 [Compound I-44, (R)-1-(3-((2-((2-Cyclopropyl-1,2,3,4-tetrahydroisoquinolin-6-yl)amino)-5-fluoropyrimidin-4-yl)amino)piperidin-1-yl)prop-2-en-1-one]
< 10 | < 10 | C=CC(=O)N1CCC[C@@H](Nc2nc(Nc3ccc4c(c3)CN(C)CC4)ncc2F)C1 [Compound I-34, (R)-1-(3-((5-Fluoro-2-((2-methyl-1,2,3,4-tetrahydroisoquinolin-7-yl)amino)-pyrimidin-4-yl)amino)piperidin-1-yl)prop-2-en-1-one]
< 10 | 10 to 100 | C=CC(=O)N1CCC[C@@H](Nc2nc(Nc3ccc4c(c3)CN(C3CC3)C4)ncc2F)C1 [Compound I-21, (R)-1-(3-((2-((2-cyclopropylisoindolin-5-yl)amino)-5-fluoropyrimidin-4-yl)amino)piperidin-1-yl)prop-2-en-1-one]
< 10 | < 10 | C=CC(=O)N1CCC[C@@H](Nc2nc(Nc3ccc4c(c3)CN(CC3CCN(C)CC3)C4)ncc2F)C1 [Compound I-8]
< 10 | < 10 | C=CC(=O)N1CCC[C@@H](Nc2nc(Nc3ccc4c(c3)CCN(CC3COC3)C4)ncc2F)C1 [Compound I-32, (R)-1-(3-(5-Fluoro-2-(2-(oxetan-3-ylmethyl)-1,2,3,4-tetrahydroisoquinolin-6-ylamino)pyrimidin-4-ylamino)piperidin-1-yl)prop-2-en-1-one]
< 10 | 10 to 100 | C=CC(=O)N1CCC[C@@H](Nc2nc(Nc3ccc4c(c3)CCNCC4)ncc2F)C1 [Compound I-57, (R)-1-(3-(5-Fluoro-2-(2,3,4,5-tetrahydro-1H-benzo[d]azepin-7-ylamino)pyrimidin-4-ylamino)piperidin-1-yl)prop-2-en-1-one]
< 10 | 10 to 100 | C=CC(=O)N1CCC[C@@H](Nc2nc(Nc3ccc4c(c3)CN(CCF)C4)ncc2F)C1 [Compound I-39, (R)-1-(3-((5-Fluoro-2-((2-(2-fluoroethyl)isoindolin-5-yl)amino)pyrimidin-4-yl)amino)piperidin-1-yl)prop-2-en-1-one]
< 10 | < 10 | C=CC(=O)N1CCC[C@@H](Nc2nc(Nc3ccc4c(c3)CN(C)C4)ncc2C(F)(F)F)C1 [Compound I-64, (R)-1-(3-((2-((2-Methylisoindolin-5-yl)amino)-5-(trifluoromethyl)pyrimidin-4-yl)amino)piperidin-1-yl)prop-2-en-1-one]
< 10 | < 10 | C=CC(=O)N1CCC[C@@H](Nc2nc(Nc3ccc4c(c3)CN(C(C)C)C4)ncc2F)C1 [Compound I-17, (R)-1-(3-((5-Fluoro-2-((2-isopropylisoindolin-5-yl)amino)pyrimidin-4-yl)amino)piperidin-1-yl)prop-2-en-1-one]
< 10 | < 10 | C=CC(=O)N1CCC[C@@H](Nc2nc(Nc3ccc4c(c3)CN(CC3CC3)C4)ncc2F)C1 [Compound I-19, (R)-1-(3-((2-((2-(cyclopropylmethyl)isoindolin-5-yl)amino)-5-fluoropyrimidin-4-yl)amino)piperidin-1-yl)prop-2-en-1-one]
